“And” between values parts separate entries of the source, which are not always exact repeats. Equal values may be shown once. Toxic doses and inconclusive results are not listed. How the source made its calls: active means survival T/C of 150% or more; inactive means T/C below 125% in these data.
Test system: CD2F1 mice, L1210 leukemia ip, survival T/C
Assay: NCI In Vivo Anticancer Drug Screen. Data for tumor model L1210 Leukemia (intraperitoneal) in CD2F1 (CDF1) mice
Conditions: higher = longer survival
Outline: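 Ratio T/C, where T is the treated-group value and C the vehicle-dosed control value, from mice implanted with a transplantable tumor.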

[1] = endpoint: mean survival time, dose: 25.0 mg/kg/injection, schedule: Q01DX009 (ip), vehicle: Klucel (hydroxypropylcellulose) (HPC)
[2] = endpoint: mean survival time, dose: 50.0 mg/kg/injection, schedule: Q01DX009 (ip), vehicle: Klucel (hydroxypropylcellulose) (HPC)
[3] = endpoint: mean survival time, dose: 100.0 mg/kg/injection, schedule: Q01DX009 (ip), vehicle: Klucel (hydroxypropylcellulose) (HPC)

Measured: T/C

N=c1ccn2c(n1)OC1C(OP(=O)(O)O)C(CO)OC12 (stereo unspecified)
inactive: endpoint: mean survival time, dose: 2.9 mg/kg/injection, schedule: Q01DX009 (ip), vehicle: saline 101 % of control | endpoint: mean survival time, dose: 4.4 mg/kg/injection, schedule: Q03HX024 (oral), vehicle: water 117 % of control | endpoint: mean survival time, dose: 5.8 mg/kg/injection, schedule: Q01DX009 (ip), vehicle: saline 119 % of control | endpoint: mean survival time, dose: 8.0 mg/kg/injection, schedule: Q03HX008 (ip), vehicle: saline 122 % of control | endpoint: mean survival time, dose: 11.6 mg/kg/injection, schedule: Q01DX009 (oral), vehicle: water 120 % of control | endpoint: mean survival time, dose: 16.0 mg/kg/injection, schedule: Q03HX008 (oral), vehicle: saline 120 % of control | endpoint: mean survival time, dose: 23.2 mg/kg/injection, schedule: Q01DX009 (oral), vehicle: water 122 % of control | endpoint: mean survival time, dose: 32.0 mg/kg/injection, schedule: Q01DX009 (oral), vehicle: saline 111 % of control | endpoint: mean survival time, dose: 128.0 mg/kg/injection, schedule: Q01DX001 (ip), vehicle: saline 112 % of control | endpoint: mean survival time, dose: 128.0 mg/kg/injection, schedule: Q01DX001 (oral), vehicle: saline 104 % of control | endpoint: mean survival time, dose: 128.0 mg/kg/injection, schedule: Q04DX003 (oral), vehicle: saline 111 % of control | endpoint: mean survival time, dose: 256.0 mg/kg/injection, schedule: Q01DX001 (ip), vehicle: saline 122 % of control | endpoint: mean survival time, dose: 256.0 mg/kg/injection, schedule: Q01DX001 (oral), vehicle: saline 107 % of control | endpoint: mean survival time, dose: 278.4 mg/kg/injection, schedule: Q03HX024 (ip), vehicle: saline 86 % of control
active: endpoint: mean survival time, dose: 8.0 mg/kg/injection, schedule: Q03HX024 (ip), vehicle: saline 177 % of control | endpoint: mean survival time, dose: 8.7 mg/kg/injection, schedule: Q03HX024 (ip), vehicle: saline 163 % of control | endpoint: mean survival time, dose: 16.0 mg/kg/injection, schedule: Q03HX024 (ip), vehicle: saline 225 % of control | endpoint: mean survival time, dose: 17.4 mg/kg/injection, schedule: Q03HX024 (ip), vehicle: saline 217 % of control | endpoint: mean survival time, dose: 17.4 mg/kg/injection, schedule: Q03HX024 (oral), vehicle: water 163 % of control | endpoint: mean survival time, dose: 23.2 mg/kg/injection, schedule: Q01DX009 (ip), vehicle: saline 157 % of control | endpoint: mean survival time, dose: 32.0 mg/kg/injection, schedule: Q01DX009 (ip), vehicle: saline 159 % of control | endpoint: mean survival time, dose: 32.0 mg/kg/injection, schedule: Q03HX024 (ip), vehicle: saline 283 % of control | endpoint: mean survival time, dose: 32.0 mg/kg/injection, schedule: Q03HX024 (oral), vehicle: saline 177 % of control | endpoint: mean survival time, dose: 34.8 mg/kg/injection, schedule: Q03HX024 (ip), vehicle: saline 229 % of control | endpoint: mean survival time, dose: 34.8 mg/kg/injection, schedule: Q03HX024 (oral), vehicle: water 193 % of control | endpoint: mean survival time, dose: 46.4 mg/kg/injection, schedule: Q01DX009 (ip), vehicle: saline 170 % of control | endpoint: mean survival time, dose: 64.0 mg/kg/injection, schedule: Q01DX009 (ip), vehicle: saline 169 % of control | endpoint: mean survival time, dose: 64.0 mg/kg/injection, schedule: Q03HX024 (ip), vehicle: saline 418 % of control | endpoint: mean survival time, dose: 64.0 mg/kg/injection, schedule: Q03HX024 (oral), vehicle: saline 231 % of control | endpoint: mean survival time, dose: 69.6 mg/kg/injection, schedule: Q03HX024 (ip), vehicle: saline 228 % of control | endpoint: mean survival time, dose: 69.6 mg/kg/injection, schedule: Q03HX024 (oral), vehicle: water 291 % of control | endpoint: mean survival time, dose: 92.8 mg/kg/injection, schedule: Q01DX009 (ip), vehicle: saline 195 % of control | endpoint: mean survival time, dose: 92.8 mg/kg/injection, schedule: Q01DX009 (oral), vehicle: water 153 % of control | endpoint: mean survival time, dose: 128.0 mg/kg/injection, schedule: Q01DX009 (ip), vehicle: saline 200 % of control | endpoint: mean survival time, dose: 128.0 mg/kg/injection, schedule: Q01DX009 (oral), vehicle: saline 166 % of control | endpoint: mean survival time, dose: 128.0 mg/kg/injection, schedule: Q03HX008 (oral), vehicle: saline 157 % of control | endpoint: mean survival time, dose: 128.0 mg/kg/injection, schedule: Q03HX024 (oral), vehicle: saline 231 % of control | endpoint: mean survival time, dose: 128.0 mg/kg/injection, schedule: Q04DX003 (ip), vehicle: saline 154 % of control | endpoint: mean survival time, dose: 139.2 mg/kg/injection, schedule: Q03HX024 (ip), vehicle: saline 221 % of control | endpoint: mean survival time, dose: 139.2 mg/kg/injection, schedule: Q03HX024 (oral), vehicle: water 273 % of control | endpoint: mean survival time, dose: 185.6 mg/kg/injection, schedule: Q01DX009 (oral), vehicle: water 197 % of control | endpoint: mean survival time, dose: 256.0 mg/kg/injection, schedule: Q01DX009 (oral), vehicle: saline 201 % of control | endpoint: mean survival time, dose: 256.0 mg/kg/injection, schedule: Q04DX003 (ip), vehicle: saline 180 % of control | endpoint: mean survival time, dose: 371.2 mg/kg/injection, schedule: Q01DX009 (oral), vehicle: water 174 % of control | endpoint: mean survival time, dose: 512.0 mg/kg/injection, schedule: Q04DX003 (ip), vehicle: saline 219 % of control | endpoint: mean survival time, dose: 512.0 mg/kg/injection, schedule: Q04DX003 (oral), vehicle: saline 173 % of control | endpoint: mean survival time, dose: 1024.0 mg/kg/injection, schedule: Q01DX001 (ip), vehicle: saline 154 % of control | endpoint: mean survival time, dose: 1024.0 mg/kg/injection, schedule: Q04DX003 (ip), vehicle: saline 359 % of control | endpoint: mean survival time, dose: 1024.0 mg/kg/injection, schedule: Q04DX003 (oral), vehicle: saline 220 % of control

COc1ccc(CNCCCCCCNCc2ccc(OC)cc2)cc1
inactive: endpoint: mean survival time, dose: 50.0 mg/kg/injection, schedule: Q01DX009 (ip), vehicle: saline with Tween-80 100 % of control | endpoint: mean survival time, dose: 100.0 mg/kg/injection, schedule: Q01DX009 (ip), vehicle: saline with Tween-80 95 % of control | endpoint: mean survival time, dose: 100.0 mg/kg/injection, schedule: Q04DX003 (ip), vehicle: saline with Tween-80 101 % of control | endpoint: mean survival time, dose: 200.0 mg/kg/injection, schedule: Q04DX003 (ip), vehicle: saline with Tween-80 87 % of control

Cc1ccc(S(=O)(=O)N/N=C/C(Br)=C(/Br)C(=O)O)cc1
inactive: endpoint: mean survival time, dose: 3.12 mg/kg/injection, schedule: Q01DX009 (ip), vehicle: Klucel (hydroxypropylcellulose) (HPC) 104 % of control | endpoint: mean survival time, dose: 6.25 mg/kg/injection, schedule: Q01DX009 (ip), vehicle: Klucel (hydroxypropylcellulose) (HPC) 112 % of control | endpoint: mean survival time, dose: 12.5 mg/kg/injection, schedule: Q01DX009 (ip), vehicle: Klucel (hydroxypropylcellulose) (HPC) 113 % of control | [1] 115 % of control and 105 % of control | [2] 113 % of control and 102 % of control | [3] 120 % of control and 108 % of control | endpoint: mean survival time, dose: 200.0 mg/kg/injection, schedule: Q01DX009 (ip), vehicle: Klucel (hydroxypropylcellulose) (HPC) 104 % of control

CCCCN(CCCC)N=O
inactive: [1] 96 % of control | [2] 90 % of control | [3] 98 % of control

CSc1cc(C)n2nnnc2n1
inactive: endpoint: mean survival time, dose: 100.0 mg/kg/injection, schedule: Q01DX001 (ip), vehicle: saline 101 % of control

Cn1cnc([N+](=O)[O-])c1[Se]c1nc(N)nc2nc[nH]c12
active: endpoint: mean survival time, dose: 25.0 mg/kg/injection, schedule: Q01DX005 (ip), vehicle: water 153 % of control | endpoint: mean survival time, dose: 25.0 mg/kg/injection, schedule: Q01DX009 (ip), vehicle: water 160 % of control | endpoint: mean survival time, dose: 37.5 mg/kg/injection, schedule: Q01DX005 (ip), vehicle: water 178 % of control | endpoint: mean survival time, dose: 50.0 mg/kg/injection, schedule: Q01DX009 (ip), vehicle: water 151 % of control
inactive: endpoint: mean survival time, dose: 3.12 mg/kg/injection, schedule: Q01DX009 (ip), vehicle: water 111 % of control | endpoint: mean survival time, dose: 6.25 mg/kg/injection, schedule: Q01DX009 (ip), vehicle: water 124 % of control | endpoint: mean survival time, dose: 7.3 mg/kg/injection, schedule: Q01DX005 (ip), vehicle: water 121 % of control

CCC(CO)(CO)[N+](=O)[O-]
inactive: endpoint: mean survival time, dose: 100.0 mg/kg/injection, schedule: Q01DX009 (ip), vehicle: saline 100 % of control | endpoint: mean survival time, dose: 200.0 mg/kg/injection, schedule: Q01DX009 (ip), vehicle: saline 100 % of control | endpoint: mean survival time, dose: 400.0 mg/kg/injection, schedule: Q01DX009 (ip), vehicle: saline 94 % of control

O=NNc1ccc(Cl)cn1
inactive: endpoint: median survival time, dose: 1.5 mg/kg/injection, schedule: Q01DX009 (ip), vehicle: water 110 % of control | endpoint: median survival time, dose: 1.56 mg/kg/injection, schedule: Q01DX009 (ip), vehicle: water 104 % of control | endpoint: median survival time, dose: 3.0 mg/kg/injection, schedule: Q01DX009 (ip), vehicle: water 114 % of control | endpoint: median survival time, dose: 3.12 mg/kg/injection, schedule: Q01DX009 (ip), vehicle: water 117 % of control | endpoint: median survival time, dose: 6.0 mg/kg/injection, schedule: Q01DX009 (ip), vehicle: water 119 % of control | endpoint: median survival time, dose: 12.5 mg/kg/injection, schedule: Q01DX009 (ip), vehicle: water 104 % of control | endpoint: median survival time, dose: 24.0 mg/kg/injection, schedule: Q01DX009 (ip), vehicle: water 107 % of control

— PubChem BioAssay AID256 (DTP/NCI, 2004)
